Test results as given in patent US20120258938A1, “Enzymatic Production or Chemical Synthesis and Uses for 5,7-Dienes and UVB Conversion Products Thereof” (priority 2008, published 2012).

Tests used:
HaCaT keratinocytes = assay: [3H]-thymidine DNA synthesis in HaCaT keratinocytes; assay type: cell-based, human
In short: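 HaCaT cells in DMEM with 5% charcoal-treated FBS received vehicle (ethanol) or secosteroids for 48 hours, with [3H]-thymidine at 1 μCi/mL for the final 12 hours. Incorporated radioactivity from trypsin-harvested cells on glass fiber filters was counted by beta counter.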

VDRE = assay: VDRE-Luc reporter (with siRNA) in HaCaT keratinocytes; assay type: cell-based, human; conditions: 24 h
Description: HaCaT keratinocytes were transfected with VDRE-Luc (gift from Dr. That Chen (27) and with scrambled or VDR siRNA (Dharmacon, Inc., Lafayette, Mo., on-Target plus smart pool human VDR L-003448-00, on-Target plus siControl non-targeting pool D-001810-10-05) using Lipofectamine Plus (Invitrogen, Carlsbad, Calif.) in DMEM medium. PhRL-TK (expresses Renilla luciferase) served as a normalization control; Promega, Madison, Wis.). After transfection, cells were incubated for 24 hours in DMEM with 5% FBS. Cells were then transferred to fresh media containing the compounds to be tested or vehicle (ethanol) and incubated for 24 hours. Levels of VDR and beta-actin 24 h after transfection were assessed with Western blot (VDR(D-6) antibody, sc-13133, 1:400, Santa Cruz, Inc., Santa Cruz, Calif.) performed as described previously (30.).
Construct CYP24-Luc and VDRE-Luc constructs were a generous gift from Dr. Tai Cheng, Ph.D. (Boston University Medical Campus, Core Lab Director). It was originally developed by Vaisanen et al. (27). PLuc and NFκB-Luc construct was described previously (28-29). huVDR construct was a generous gift from Dr. D. Bikle. HaCaT keratinocytes were transfected with NFκB-Luc, CYP-24-Luc, VDRE-Luc and hVDR constructs using Lipofectamine Plus (Invitrogen, Carlsbad, Calif.) in DMEM medium with firefly luciferase reporter gene plasmid and with phRL-TK.

[1] = system: SK Mel 188 human melanoma cells; assay: Soft agar colony formation, SKMEL 188 melanoma; assay type: cell-based
Description: Growth and survival of prostate cancer cells (PC3) and melanoma cells SKMEL 188 and AbC1 was determined by following their ability to form colonies in soft agar. Cells growing in monolayer culture were trypsinized and resuspended (1,000 cells/well) in 0.25 ml medium containing 0.4% agarose and 5% charcoal stripped serum (HyClone).
Cell suspensions were added to 0.8% agar layer in 24 well plates. […] Each condition was tested in quadruplicate. An ethanol solvent control (amount of ethanol equivalent to test) as well as a media-only control was included in the assay. Cells were allowed to grow at 37° with 5% CO2 over two weeks with secosteroids in fresh media (100 μL) being added after every 72 h. Soft agar colonies were scored and stained with 0.5 mg/ml MTT reagent (Promega), 500 μL/well after two weeks. Colonies were then counted under the microscope and number of units was calculated as number of colonies formed divided by the number of cells seeded×100.

CYP27B1 = assay: Real-time RT PCR CYP27B1 mRNA, normal epidermal keratinocytes; assay type: cell-based, human; conditions: 10^−8 M
Description: (§1) RNA was extracted using an Absolutely RNA RT-PCR Miniprep Kit (Stratagene, La Jolla, Calif.). Real time PCR and reverse transcription products were purchased from Applied Biosystems, Foster City, Calif. Reverse transcription was performed using Taqman® Reverse Transcription Reagents. The following PCR products were used: cytokeratin 14: Hs00265033_m1, involucrin: Hs00846307_s1, CYP27A1: Hs00168003_ml, CYP27B1: Hs00168017_ml, 18SrRNA: Hs99999901_s1. The reaction was performed with Taqman® Universal PCR Master Mix; data were collected on an ABI Prism 7700 and analyzed on Sequence Detector 1.9.1. Specific gene amounts were related to 18SrRNA by comparative CT method.

CYP27A1 = assay: Real-time RT PCR CYP27A1 mRNA, normal epidermal keratinocytes; assay type: cell-based, human; conditions: 10^−8 M
Description: as §1

CYP24 promoter = assay: CYP24-Luc reporter in normal epidermal keratinocytes; assay type: cell-based, human; conditions: 24 h
Text: The CYP24-Luc construct was a generous gift from Dr Tai Cheng (Boston University Medical Campus, Core Lab Director). It was originally developed by Vaisanen et al. (27). The details of the pLuc construct have been described previously (28-29). Normal epidermal keratinocytes were transfected using Lipofectamine Plus (Invitrogen, Carlsbad, Calif.) in Epilife medium with firefly luciferase reporter gene plasmid and with phRL-TK (expresses Renilla luciferase and serves as normalization control; Promega, Madison, Wis.). After transfection, cells were incubated for 24 hours in EpiLife medium with HKGS. Cells were then transferred to fresh media containing the compounds to be tested or vehicle (ethanol) and incubated for 24 hours. The firefly luciferase and Renilla luciferase signals were recorded with a TD-20/20 luminometer (Turner Designs, Sunnyvale, Calif.); background luminescence was subtracted and the resulting promoter-specific firefly signal was divided by the Renilla signal (proportional to the number of transfected cells). The values obtained were divided by the mean of control (untreated) cells.

`C=C1CC[C@H](O)C/C1=C/C=C1\CCC[C@]2(C)[C@@H](C(C)(O)CC(O)CC(C)C)CC[C@@H]12` (stereo partly drawn) [20,23-dihydroxycholecalciferol, (5Z,7E)-9,10-secocholesta-5,7,10(19)-triene-3β,20,23-triol] was tested, and the “decrease in DNA synthesis” value (HaCaT keratinocytes; 0.1 nM) was 30%, the “decrease in DNA synthesis” value (HaCaT keratinocytes; 10 nM) was “approximately 50%” and the “keratinocyte proliferation compared with 1α,25-dihydroxycholecalciferol” value (HaCaT keratinocytes; HaCaT, 48 h) was “inhibit keratinocyte proliferation more potently than the control compound”. For the same compound, the VDRE-Luc activity (VDRE; HaCaT, 10 nM and 100 nM) was “Activation of VDRE” and the “less colonies bigger than 0.5 mm” value ([1]; Sk Mel 188, 0.1 nM and 100 nM) was “approximately 50%”.
With `C=C1CC[C@H](O)C/C1=C/C=C1\CCC[C@]2(C)[C@@H](C(C)=O)CC[C@@H]12` [pD3, (5Z,7E)-3β-hydroxy-9,10-secopregna-5,7,10(19)-trien-20-one] the “proliferation (DNA synthesis)” value (HaCaT keratinocytes; HaCaT, 48 hr) was “inhibits proliferation” and the “colony formation on soft agar” value ([1]; SKMEL-188, dose dependent) was “suppress colony formation on soft agar”.
For `C=C1CC[C@H](O)C/C1=C/C=C1\CCC[C@@]2(C)[C@H]1CC[C@@H]2[C@@](C)(O)CCCC(C)C` [20(OH)D3, (5Z,7E)-9,10-secocholesta-5,7,10(19)-triene-3β,20-diol], the “DNA synthesis ([3H]-thymidine assay)” value (HaCaT keratinocytes; 48 h, 10^−8 and 10^−7 M) was “inhibited DNA synthesis”, the “keratinocyte proliferation compared with 1α,25-dihydroxycholecalciferol” value (HaCaT keratinocytes; HaCaT, 48 h) was “inhibit keratinocyte proliferation more potently than the control compound” and the “inhibition of CYP27B1 expression” value (CYP27B1; 1 h) was ~4 fold. The “inhibition of CYP27B1 expression” value (CYP27B1; 48 h) was ~2 fold, the “inhibition of CYP27A1 expression” value (CYP27A1; 24 h) was ~3.5 fold and the “inhibition of CYP27A1 expression” value (CYP27A1; 48 h) was ~2.6 fold. For the same compound, the “stimulation of transcriptional activity of the CYP24 promoter” value (CYP24 promoter) was ~2.5 fold and the “increase in VDRE-driven luciferase activity” value (VDRE; 10 nM, scrambled siRNA) was ~3 fold.
For `C=C1/C(=C\C=C2/CCC[C@]3(C)[C@@H]([C@H](C)CCCC(C)(C)O)CC[C@@H]23)C[C@@H](O)C[C@@H]1O` [1α,25-dihydroxycholecalciferol, (5Z,7E)-9,10-secocholesta-5,7,10(19)-triene-1α,3β,25-triol, reference compound], the “inhibition of CYP27B1 expression” value (CYP27B1; 1 h) was ~1.5 fold, the “inhibition of CYP27A1 expression” value (CYP27A1; 24 h) was ~2.9 fold and the “stimulation of transcriptional activity of the CYP24 promoter” value (CYP24 promoter) was ~21 fold.
